Measured values: ChEMBL document CHEMBL5465560, “Selectivity Literature for EUbOPEN Chemogenomic Library” (2024)

Assays:
[1] = biological target: Transcription initiation factor TFIID subunit 1-like (Homo sapiens) (UniProt Q8IZX4); test: Selectivity interaction (Human bromodomain panel (DSF assay)) EUB0000233b TAF1L
[2] = biological target: T1, Mitogen-activated protein kinase kinase kinase 7 (Homo sapiens) (UniProt O43318); test: Selectivity interaction (KinomeScan (DiscoverX)) EUB0000595a MAP3K7; settings: at 10 µM
T1 sequence (whole entry): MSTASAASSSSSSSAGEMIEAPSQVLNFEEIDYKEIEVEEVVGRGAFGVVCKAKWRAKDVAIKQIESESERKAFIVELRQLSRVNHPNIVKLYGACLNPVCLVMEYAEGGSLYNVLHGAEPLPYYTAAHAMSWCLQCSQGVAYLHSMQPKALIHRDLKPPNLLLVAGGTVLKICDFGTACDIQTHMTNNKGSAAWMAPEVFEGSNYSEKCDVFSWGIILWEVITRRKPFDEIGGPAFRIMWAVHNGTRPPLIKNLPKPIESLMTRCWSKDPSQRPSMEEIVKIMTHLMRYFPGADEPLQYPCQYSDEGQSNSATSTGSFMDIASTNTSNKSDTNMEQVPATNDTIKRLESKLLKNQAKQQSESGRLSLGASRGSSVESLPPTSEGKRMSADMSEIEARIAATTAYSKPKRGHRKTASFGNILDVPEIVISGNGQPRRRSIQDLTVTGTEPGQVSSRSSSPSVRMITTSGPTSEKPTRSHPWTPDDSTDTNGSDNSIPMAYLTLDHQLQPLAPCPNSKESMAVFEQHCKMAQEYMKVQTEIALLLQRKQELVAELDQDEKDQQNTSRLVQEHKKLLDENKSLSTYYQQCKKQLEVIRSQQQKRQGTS

[3] = biological target: Phosphatidylinositol 4-kinase beta (Homo sapiens, UniProt Q9UBF8); test: Selectivity interaction (KinomeScan (DiscoverX)) EUB0000595a PI4KB; settings: at 10 µM
Sequence of Phosphatidylinositol 4-kinase beta (Q9UBF8 2-816 limits assumed): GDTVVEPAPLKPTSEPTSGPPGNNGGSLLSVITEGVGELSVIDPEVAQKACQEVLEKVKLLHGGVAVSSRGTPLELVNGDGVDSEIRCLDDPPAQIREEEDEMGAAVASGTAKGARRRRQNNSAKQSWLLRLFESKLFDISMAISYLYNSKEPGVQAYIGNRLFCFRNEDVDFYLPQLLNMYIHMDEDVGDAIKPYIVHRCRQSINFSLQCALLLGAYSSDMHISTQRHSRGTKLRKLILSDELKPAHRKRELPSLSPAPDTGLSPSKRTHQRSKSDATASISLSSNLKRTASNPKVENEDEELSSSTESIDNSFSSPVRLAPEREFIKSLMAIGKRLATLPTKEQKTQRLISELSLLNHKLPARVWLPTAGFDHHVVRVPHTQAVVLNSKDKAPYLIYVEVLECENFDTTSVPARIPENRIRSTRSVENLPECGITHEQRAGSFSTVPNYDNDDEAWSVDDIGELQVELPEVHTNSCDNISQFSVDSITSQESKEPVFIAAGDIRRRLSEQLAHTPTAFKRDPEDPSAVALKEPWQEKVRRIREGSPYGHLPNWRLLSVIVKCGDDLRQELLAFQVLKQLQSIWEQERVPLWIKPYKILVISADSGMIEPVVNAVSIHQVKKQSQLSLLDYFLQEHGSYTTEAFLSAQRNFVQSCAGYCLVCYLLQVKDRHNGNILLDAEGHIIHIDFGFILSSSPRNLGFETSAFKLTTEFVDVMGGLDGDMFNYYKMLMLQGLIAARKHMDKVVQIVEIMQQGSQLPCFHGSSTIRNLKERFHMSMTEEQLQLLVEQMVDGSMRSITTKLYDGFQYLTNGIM

[4] = biological target: Serine/threonine-protein kinase SIK2 (Homo sapiens) (UniProt Q9H0K1); test: Selectivity interaction (KinomeScan (DiscoverX)) EUB0000695a SIK2; settings: at 100 nM
Sequence of Serine/threonine-protein kinase SIK2 (Homo sapiens) (Q9H0K1 whole entry, looked up): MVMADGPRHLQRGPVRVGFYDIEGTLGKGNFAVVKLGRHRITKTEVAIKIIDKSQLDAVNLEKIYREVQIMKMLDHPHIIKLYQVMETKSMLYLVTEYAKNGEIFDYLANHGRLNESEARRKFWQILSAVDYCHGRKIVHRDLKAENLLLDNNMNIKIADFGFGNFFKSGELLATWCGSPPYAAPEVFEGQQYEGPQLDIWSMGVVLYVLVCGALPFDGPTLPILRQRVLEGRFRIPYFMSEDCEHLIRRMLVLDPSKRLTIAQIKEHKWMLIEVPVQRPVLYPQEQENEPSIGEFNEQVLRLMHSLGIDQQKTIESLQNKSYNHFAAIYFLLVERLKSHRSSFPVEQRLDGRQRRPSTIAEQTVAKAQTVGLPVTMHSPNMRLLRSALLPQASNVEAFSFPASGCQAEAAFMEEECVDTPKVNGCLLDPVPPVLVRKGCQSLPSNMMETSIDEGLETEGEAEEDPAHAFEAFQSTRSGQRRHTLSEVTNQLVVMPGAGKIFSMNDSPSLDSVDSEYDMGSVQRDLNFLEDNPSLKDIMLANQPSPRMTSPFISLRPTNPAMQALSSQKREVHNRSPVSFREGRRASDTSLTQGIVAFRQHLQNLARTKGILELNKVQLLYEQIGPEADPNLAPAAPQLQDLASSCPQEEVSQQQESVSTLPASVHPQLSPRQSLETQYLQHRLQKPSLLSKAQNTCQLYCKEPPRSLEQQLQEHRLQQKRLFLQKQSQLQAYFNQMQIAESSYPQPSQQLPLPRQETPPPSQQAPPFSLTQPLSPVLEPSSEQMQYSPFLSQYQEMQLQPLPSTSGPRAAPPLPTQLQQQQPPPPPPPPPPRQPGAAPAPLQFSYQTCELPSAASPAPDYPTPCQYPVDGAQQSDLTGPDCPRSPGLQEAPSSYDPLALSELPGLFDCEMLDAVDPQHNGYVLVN

[5] = biological target: T2, Cyclin-dependent kinase-like 2 (Homo sapiens) (UniProt Q92772); test: Selectivity interaction (KinomeScan (DiscoverX)) EUB0000666a CDKL2; settings: at 10 µM
T2 sequence (whole entry): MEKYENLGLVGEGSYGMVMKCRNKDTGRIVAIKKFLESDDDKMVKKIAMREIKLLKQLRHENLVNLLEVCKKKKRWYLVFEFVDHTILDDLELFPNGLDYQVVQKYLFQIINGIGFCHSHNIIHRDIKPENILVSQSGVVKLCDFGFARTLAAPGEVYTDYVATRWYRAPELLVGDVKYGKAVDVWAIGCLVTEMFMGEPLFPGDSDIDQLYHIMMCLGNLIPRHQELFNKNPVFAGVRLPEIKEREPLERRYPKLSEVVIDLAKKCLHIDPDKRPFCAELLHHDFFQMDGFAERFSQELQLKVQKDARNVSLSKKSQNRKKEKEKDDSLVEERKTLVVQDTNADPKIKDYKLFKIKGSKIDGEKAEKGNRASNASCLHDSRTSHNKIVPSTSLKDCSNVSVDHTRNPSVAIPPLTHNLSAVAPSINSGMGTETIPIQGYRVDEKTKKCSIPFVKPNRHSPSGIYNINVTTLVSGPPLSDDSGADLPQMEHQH

[6] = biological target: ATPase family AAA domain-containing protein 2 (Homo sapiens) (UniProt Q6PL18); test: Selectivity interaction (Bromodomain panel (DSF asssay)) EUB0000270b ATAD2
Sequence of ATPase family AAA domain-containing protein 2 (Homo sapiens) (Q6PL18 whole entry, the tested form may be a part): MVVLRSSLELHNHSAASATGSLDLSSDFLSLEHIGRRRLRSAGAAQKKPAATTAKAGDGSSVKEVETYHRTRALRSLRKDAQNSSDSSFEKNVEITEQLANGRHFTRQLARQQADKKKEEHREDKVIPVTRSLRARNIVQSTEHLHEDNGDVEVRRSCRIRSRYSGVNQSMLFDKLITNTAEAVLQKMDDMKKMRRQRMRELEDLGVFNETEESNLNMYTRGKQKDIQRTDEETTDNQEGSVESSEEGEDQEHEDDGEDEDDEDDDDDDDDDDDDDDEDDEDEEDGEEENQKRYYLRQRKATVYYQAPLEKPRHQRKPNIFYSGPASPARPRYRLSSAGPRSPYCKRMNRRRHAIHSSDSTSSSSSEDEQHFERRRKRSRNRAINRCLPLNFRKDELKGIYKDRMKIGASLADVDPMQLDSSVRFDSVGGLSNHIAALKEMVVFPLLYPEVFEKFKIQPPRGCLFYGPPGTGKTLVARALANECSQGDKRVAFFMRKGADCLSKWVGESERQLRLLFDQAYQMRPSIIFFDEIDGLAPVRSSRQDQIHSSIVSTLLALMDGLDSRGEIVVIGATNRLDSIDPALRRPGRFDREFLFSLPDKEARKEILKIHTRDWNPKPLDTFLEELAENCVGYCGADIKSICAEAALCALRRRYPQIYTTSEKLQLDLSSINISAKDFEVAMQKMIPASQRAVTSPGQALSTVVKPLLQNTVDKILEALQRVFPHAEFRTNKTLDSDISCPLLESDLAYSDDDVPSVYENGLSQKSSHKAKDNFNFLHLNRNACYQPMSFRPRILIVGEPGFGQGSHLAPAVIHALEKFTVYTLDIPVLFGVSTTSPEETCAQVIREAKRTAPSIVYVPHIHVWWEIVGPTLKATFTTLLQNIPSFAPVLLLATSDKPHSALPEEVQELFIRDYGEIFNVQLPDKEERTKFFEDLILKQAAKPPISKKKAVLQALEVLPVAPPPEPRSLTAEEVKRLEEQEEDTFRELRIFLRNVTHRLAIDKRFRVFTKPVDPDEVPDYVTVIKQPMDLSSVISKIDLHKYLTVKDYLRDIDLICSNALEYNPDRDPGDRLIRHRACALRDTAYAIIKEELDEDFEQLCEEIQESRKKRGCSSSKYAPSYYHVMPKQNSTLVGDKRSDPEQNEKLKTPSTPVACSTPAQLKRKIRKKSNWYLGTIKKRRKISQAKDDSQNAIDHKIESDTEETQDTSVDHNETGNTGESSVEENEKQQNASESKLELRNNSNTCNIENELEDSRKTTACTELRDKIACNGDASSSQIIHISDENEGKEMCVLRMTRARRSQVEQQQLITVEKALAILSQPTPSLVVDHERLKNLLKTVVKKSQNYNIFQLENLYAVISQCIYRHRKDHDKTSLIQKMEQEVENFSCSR

[7] = biological target: RAF proto-oncogene serine/threonine-protein kinase (Homo sapiens) (UniProt P04049); settings: at 10 µM
Sequence of RAF proto-oncogene serine/threonine-protein kinase (Homo sapiens) (P04049 whole entry): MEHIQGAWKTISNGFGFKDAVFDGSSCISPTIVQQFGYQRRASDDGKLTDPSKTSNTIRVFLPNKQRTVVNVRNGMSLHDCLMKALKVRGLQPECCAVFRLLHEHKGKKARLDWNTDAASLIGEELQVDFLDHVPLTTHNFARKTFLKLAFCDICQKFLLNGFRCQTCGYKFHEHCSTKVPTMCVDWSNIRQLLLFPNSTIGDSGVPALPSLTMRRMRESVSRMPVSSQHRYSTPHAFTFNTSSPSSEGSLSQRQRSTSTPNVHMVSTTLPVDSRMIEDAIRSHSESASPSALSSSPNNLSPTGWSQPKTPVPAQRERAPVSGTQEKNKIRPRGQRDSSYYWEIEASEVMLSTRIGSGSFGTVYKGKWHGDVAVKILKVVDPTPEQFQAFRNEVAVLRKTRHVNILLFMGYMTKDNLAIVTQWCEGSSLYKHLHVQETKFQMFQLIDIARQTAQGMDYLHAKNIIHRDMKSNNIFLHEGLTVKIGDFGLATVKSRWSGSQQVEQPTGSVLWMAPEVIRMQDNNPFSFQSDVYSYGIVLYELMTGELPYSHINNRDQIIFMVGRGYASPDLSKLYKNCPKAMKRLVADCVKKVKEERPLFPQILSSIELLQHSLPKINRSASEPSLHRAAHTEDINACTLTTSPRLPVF

[8] = biological target: T1, Mitogen-activated protein kinase kinase kinase 7 (Homo sapiens); test: Selectivity interaction (Upstate Kinase Profiler service (Millipore)) EUB0000056c MAP3K7; settings: at 1 µM
[9] = biological target: Tyrosine-protein kinase Fgr (Homo sapiens) (UniProt P09769); test: Selectivity interaction (ActivX KiNativ screen (ex vivo kinase selectivity in human PBMCs)) EUB0001619a FGR; type: cell-based; settings: PBMC, at 1 µM
Sequence of Tyrosine-protein kinase Fgr (Homo sapiens) (P09769 2-529 limits assumed): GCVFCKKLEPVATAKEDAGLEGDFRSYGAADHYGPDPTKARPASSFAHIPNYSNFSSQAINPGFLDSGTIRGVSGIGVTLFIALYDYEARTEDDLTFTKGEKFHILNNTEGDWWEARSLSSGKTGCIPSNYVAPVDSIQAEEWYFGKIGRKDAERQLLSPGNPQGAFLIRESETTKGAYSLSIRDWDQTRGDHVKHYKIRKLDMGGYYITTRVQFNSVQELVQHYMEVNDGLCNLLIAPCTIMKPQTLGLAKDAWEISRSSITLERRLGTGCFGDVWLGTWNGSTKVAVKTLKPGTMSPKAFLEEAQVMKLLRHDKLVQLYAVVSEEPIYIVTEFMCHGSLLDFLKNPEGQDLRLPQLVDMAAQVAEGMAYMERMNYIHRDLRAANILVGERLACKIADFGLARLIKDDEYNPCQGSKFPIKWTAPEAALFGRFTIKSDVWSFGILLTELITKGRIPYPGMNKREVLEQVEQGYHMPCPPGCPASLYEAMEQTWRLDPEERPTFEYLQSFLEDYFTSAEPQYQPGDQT

[10] = biological target: T3, Protein kinase C epsilon type (Homo sapiens) (UniProt Q02156); test: Selectivity interaction (KinomeScan (DiscoverX)) EUB0000618a PRKCE; settings: at 10 µM
T3 sequence (whole entry): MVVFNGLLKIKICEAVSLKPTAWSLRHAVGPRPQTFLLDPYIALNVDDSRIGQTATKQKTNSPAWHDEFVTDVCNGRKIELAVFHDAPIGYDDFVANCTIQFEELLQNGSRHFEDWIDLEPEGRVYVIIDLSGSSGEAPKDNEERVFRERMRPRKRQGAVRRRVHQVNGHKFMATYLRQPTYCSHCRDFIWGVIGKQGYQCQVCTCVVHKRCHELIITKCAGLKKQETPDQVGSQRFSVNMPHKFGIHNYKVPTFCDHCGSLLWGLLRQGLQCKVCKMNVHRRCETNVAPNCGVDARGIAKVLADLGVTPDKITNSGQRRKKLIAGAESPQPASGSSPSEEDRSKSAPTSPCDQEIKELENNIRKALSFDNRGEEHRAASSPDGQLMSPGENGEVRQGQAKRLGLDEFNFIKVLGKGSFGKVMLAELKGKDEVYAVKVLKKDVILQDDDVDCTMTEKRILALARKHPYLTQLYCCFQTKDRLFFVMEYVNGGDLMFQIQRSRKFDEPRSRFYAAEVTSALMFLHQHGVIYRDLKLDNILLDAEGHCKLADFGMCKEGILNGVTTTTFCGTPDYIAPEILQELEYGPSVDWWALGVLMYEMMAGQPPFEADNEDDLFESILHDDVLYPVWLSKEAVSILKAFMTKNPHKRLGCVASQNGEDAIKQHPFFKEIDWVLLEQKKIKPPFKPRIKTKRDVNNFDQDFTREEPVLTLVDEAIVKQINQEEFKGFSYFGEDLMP

[11] = biological target: Casein kinase I isoform epsilon (Homo sapiens, UniProt P49674); test: Selectivity interaction (KinomeScan (DiscoverX)) EUB0000655a CSNK1E; settings: at 10 µM
Sequence of Casein kinase I isoform epsilon (P49674 whole entry, looked up, canonical isoform): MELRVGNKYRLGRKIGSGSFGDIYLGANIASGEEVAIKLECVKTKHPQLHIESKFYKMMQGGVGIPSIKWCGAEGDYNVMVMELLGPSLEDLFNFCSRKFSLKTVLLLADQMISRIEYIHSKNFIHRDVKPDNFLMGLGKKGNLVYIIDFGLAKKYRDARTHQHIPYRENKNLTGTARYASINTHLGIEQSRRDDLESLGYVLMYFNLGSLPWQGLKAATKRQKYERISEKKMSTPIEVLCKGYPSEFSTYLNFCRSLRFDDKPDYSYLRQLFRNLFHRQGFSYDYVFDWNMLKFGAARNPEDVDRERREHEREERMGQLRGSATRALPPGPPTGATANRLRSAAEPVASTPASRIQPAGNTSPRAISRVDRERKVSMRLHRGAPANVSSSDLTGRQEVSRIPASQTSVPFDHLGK

[12] = biological target: T4, Serine/threonine-protein kinase 17A (Homo sapiens) (UniProt Q9UEE5); settings: at 10 µM
T4 sequence (whole entry): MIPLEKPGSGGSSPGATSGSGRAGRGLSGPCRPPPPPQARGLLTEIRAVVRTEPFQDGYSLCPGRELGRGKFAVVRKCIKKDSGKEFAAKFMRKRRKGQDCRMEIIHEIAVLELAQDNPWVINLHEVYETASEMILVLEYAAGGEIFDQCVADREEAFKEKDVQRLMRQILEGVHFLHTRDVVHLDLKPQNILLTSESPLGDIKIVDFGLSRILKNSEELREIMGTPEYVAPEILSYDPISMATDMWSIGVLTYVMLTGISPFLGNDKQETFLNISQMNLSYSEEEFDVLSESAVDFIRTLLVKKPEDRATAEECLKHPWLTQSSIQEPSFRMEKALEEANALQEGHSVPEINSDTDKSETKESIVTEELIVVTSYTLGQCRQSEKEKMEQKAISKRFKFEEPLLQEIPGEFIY

**Q.** How did the dTM [1] turn out when CN(C)CCCOc1ccc(-c2cc(NCCCn3cccn3)nc(S(C)(=O)=O)n2)cc1 was run?
**A.** Its dTM is < 2 K.

**Q.** Which % of control [2] does the source give for COCC(=O)NC/C=C/c1ccc2ncnc(Nc3ccc(Oc4ccc(C)nc4)c(C)c3)c2c1 [CP-724714] here?
**A.** Its % of control is 100%.

**Q.** And the % of control [3]?
**A.** Its % of control is 100%.

**Q.** With Cc1cc(F)c(C(=O)Nc2cccc(-c3nncn3C(C)C)n2)cc1-n1cnc(C2CC2)c1 as the compound, how does the % of control [4] read?
**A.** The % of control was 100%.

**Q.** Which % of control [5] does the source give for O=C(NOC[C@H](O)CO)c1ccc(F)c(F)c1Nc1ccc(I)cc1F here?
**A.** Its % of control is 87%.

**Q.** For Cc1cc(CN)cc(C)c1-c1ncn(C)c1-c1cncn1C, which dTM [6] is on record?
**A.** The dTM was -1.82 K.

**Q.** Cc1cc([C@@H](C)Nc2ccccc2C(=O)O)c2nc(N3CCOCC3)cc(=O)n2c1 [AZD-6482] was tested. Which % of control [7] did it give?
**A.** Its % of control is 100%.

**Q.** How did the % of inhibition [8] turn out when Cc1ccc(-c2ccc3c(ccc4sc5c(c43)NC[C@@H](C)NC5=O)n2)cn1 was run?
**A.** The % of inhibition was 6%.

**Q.** N#Cc1cccc(-c2c[nH]c3ncnc(N4CCOCC4)c23)c1 was tested. Which % of inhibition [9] did it give?
**A.** Its % of inhibition is 2%.

**Q.** How did the % of control [10] turn out when O[C@H]1CC[C@H](Nc2ncc3nc(Nc4c(F)cc(F)cc4F)n([C@H]4CCOC4)c3n2)CC1 was run?
**A.** The % of control was 98%.

**Q.** Which % of control [11] does the source give for CN(C)CCOc1ccc(-c2nc(-c3ccncc3)c(-c3ccc4c(c3)CC/C4=N\O)[nH]2)cc1 here?
**A.** Its % of control is 14%.

**Q.** How did the % of control [12] turn out when CCN(CC)CCCCNc1ncc2cc(-c3cc(OC)cc(OC)c3)c(NC(=O)NC(C)(C)C)nc2n1 was run?
**A.** Its % of control is 100%.
